Experimental data reported in patent US20160331716A1, “MOLECULAR TARGETS FOR HEALING OR TREATING WOUNDS” (UNIVERSITY COLLEGE CARDIFF CONSULTANTS LIMITED, priority 2011, published 2016).

Columns and labels:
HECV cells = assay: ECIS cell adhesion assay, HECV endothelial cells; type: cell-based, human
Experimental: HaCaT, a human keratinocyte cell line was purchased from the German Cancer Centre, HECV, a human vascular endothelial cells from Interlab, Milan, Italy, DB/DB mice from Harlan UK.
HaCaT and HECV cells, which were positive for PTPRK, were transfected with anti-PTPRK transgenes by way of electroporation (270 v). After selection with a selection medium (DMEM with 10 ug/ml blasticidin) for 10 days, clones of selected cells were pooled and used for subsequent analysis.
(§1) Three models of ECIS instrument were used: ECIS 9600 for screening and ECIS1600R and ECIS Z8 for modelling. In all systems, 8W10 arrays were used (Applied Biophysics Inc., Troy, N.Y., USA) (Giaever and Keese 1991, Kees et al 2004). Following treating the array surface with a Cysteine solution (or array stabilization procedure for ECIS Z8), the arrays were incubated with complete medium for 1 hr Electric changes were continuously monitored for up to 24 hrs. In the 9600 system, the monitoring was at fixed […]. In the 1600R and ECIS Zθ systems, cells were monitored at 62.5, 125, 250, 500, 1,000, 2,000, 4,000, 8,000, 16,000, 32,000 and 64,000 Hz. The adhesion was analysed by the integrated Rb modelling method.

HaCaT cells = assay: ECIS wounding (migration) assay, HaCaT keratinocytes; type: cell-based, human; conditions: over a range of concentrations
Experimental: as §1
Using the ECIS Theta96 model, we tested the response of cells to stibugluconate over a range of concentrations. HaCaT cells responded over the range of concentrations tested in that there was an increase in cell adhesion between 0.16-20 uM with 20 uM showing the maximum effects, FIGS. 5 & 6. Likewise, the cells also responded to stibogluconate by increasing their migration from concentrations as low as 160 nM to 100 uM, FIGS. 7, 8 & 9.

[1] = In vivo tolerance test in CD-1 athymic; conditions: intraperitoneal, daily, ~10 mg/kg body weight
Experimental: (§2) The first tolerance test was conducted on the CD-1 athymic (Charles River Laboratories). Briefly, CD-1 of 4-6 weeks old, 20 g in weight, were housed in filter topped cages. Sodium stibogluconate a known PTPRK inhibitor was injected, via the intraperitoneal route, on a daily basis. The compound was given at 100 final concentration (equivalent to ˜10 mg/kg body weight) in 100 ul in volume. CD-1 were observed daily, weighed twice weekly. An additional tolerance and efficacy test was carried out using the db/db strain.
as §2, with “conducted” for “conducted on”, “stibogluconate” for “stibogluconate a known PTPRK inhibitor”, “10” for “˜10”

db/db mice = assay: In vivo efficacy test, ear-punch wound healing in diabetic db/db; conditions: for rate of wound healing: 2-100 mg/ml
Description: (§3) The diabetic strain of db/db was obtained from Harlan. 4-6 weeks old with body weight at 20 g were used. Creation of a wound was according to a recently described method. Briefly, after being housed for a week, the db/db were first ear-pieced using an puncher, in order to create a wound (hole) of 1 mm in diameter. The following day after wound creation, all the db/db were weighed and the wound was photographed using a digital camera. Treatment was given systemically (by IP injection) or topically (by manually applying the compound in gel into the wound area). Both treatments were given every other day, twice weekly or weekly. Images were obtained weekly. The size of the wounds was determined using an image analysis software and is shown here as the area in pixels.
Formulation of the Compounds. • 1. For systemic application, Sodium stibogluconate was dissolved in BSS and diluted in the same for the required concentration. The solutions were prepared that each 100 ul contained the correct amount of compounds and was aliquatted and stored as such at −20° C. until used. The compound was injected every other day by the IP route. • 2. For topical application, we used two carrier gels that are currently used in wound care, namely Bactroban and Aquagel. From the concentrated master stock of Sodium stibogluconate, 100 ul of the stock solution was mixed with 2 grams of the respective gels, followed by low speed homogenisation using a hand held homogeniser, for 2 minutes. […] For use, small amount (150 ul) of the gel was applied to the wound area and gently rubbed in using fingers. • 3. […] Sodium stibogluconate increased the rate of wound healing without producing any side effects. • Sodium stibogluconate was given systemically, at 100 uM.
Using the same db/db mice, we further tested the possible dose response by applying stibogluconate at 2 mg/ml. 20 mg/ml and 100 mg/ml, using topical applications. At the same time, we tested two treatment methods: applying the agent on a weekly basis or twice weekly basis. We determined the size of the wound on a weekly basis. […] Using a Two-way ANOVA (Holm-Sidak model), it was shown that in both treatment regimes, there was a highly significant difference between the treatment group and control group, p=0.013, […] and 0.009, control vs 2 mg/ml, 20 mg/ml and 100 mg respectively, for the twice weekly treatment, and p=0.05, 0.013, 0.009 for the weekly treatment group.

[2] = Tolerance in db/db during wound healing study; type: in vivo, mice; conditions: systemic, every other day, two week period
Experimental: as §2, §3
Formulation of the Compounds. • 1. For systemic application, Sodium stibogluconate was dissolved in BSS and diluted in the same for the required concentration. The solutions were prepared that each 100 ul contained the correct amount of compounds and was aliquatted and stored as such at −20° C. until used. The compound was injected every other day by the IP route. • 2. For topical application, we used two carrier gels that are currently used in wound care, namely Bactroban and Aquagel. From the concentrated master stock of Sodium stibogluconate, 100 ul of the stock solution was mixed with 2 grams of the respective gels, followed by low speed homogenisation using a hand held homogeniser, for 2 minutes. […]

SMILES: O.O.O.O.O.O.O.O.O.O=C([O-])[C@@H]1[O][Sb]2([O-])([O][Sb]34([OH])[O][C@H]([C@H](O)CO)[C@H]([O]3)[C@H](C(=O)[O-])[O]4)[O][C@H]([C@H](O)CO)[C@@H]1[O]2.[Na+].[Na+].[Na+] [stibogluconate, Sodium stibogluconate]
- cell adhesion to the surface of the electrode (ECIS) (HECV cells; HECV/WT treated with stibogluconate): rapid adhesion
- response to stibogluconate of HECV/PTPRKrib cells compared with HECV/WT (HECV cells; PTPRK knock-down cells, ECIS adhesion): markedly reduced
- effect on the migration of the cells (keratinocytes) (HaCaT cells): concentration dependent effect
- tolerance in vivo [1]: Well Tolerated
- wound size versus control group (db/db mice; systemic (IP) at 100 uM, after one week): smaller than the control group
- twice weekly versus weekly administration, rate of wound healing (db/db mice; topical): marginally more effective
- rate of wound healing (db/db mice; topical, twice weekly application): rapid rate of wound healing
- rate of wound healing (db/db mice; topical, weekly application): rapid rate of wound healing
- effect of interrupting the treatment regimen on healing (db/db mice; treatment removed between third and fourth week, weekly or twice weekly regimen): adversely affects the healing process
- side effects [2]: did not observe any side effects
- tolerance [2]: well tolerated
- weight loss [2]: no weight loss
